According to PubChem BioAssay (NCI):
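Method: 48-hour compound exposure of cells in 96-well plates, five concentrations, linear interpolation of endpoints. GI50: concentration for 50% inhibition of growth. TGI denotes the concentration required for complete inhibition of growth.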

Columns and labels:
Assay in all cases: growth of human tumour cells (NCI), 48 h
[1] = test system: CAKI-1 renal
[2] = test system: DU-145 prostate
[3] = test system: HCC-2998 colon
[4] = test system: MDA-MB-231 breast
[5] = test system: NCI-H460 lung
[6] = test system: SK-OV-3 ovarian
[7] = test system: SN12C renal
[8] = test system: SNB-19 CNS
[9] = test system: SNB-75 CNS
[10] = test system: U251 CNS

| SMILES | GI50 [1] | TGI [1] | GI50 [2] | TGI [2] | GI50 [3] | TGI [3] | GI50 [4] | TGI [4] | GI50 [5] | TGI [5] | GI50 [6] | TGI [6] | GI50 [7] | TGI [7] | GI50 [8] | TGI [8] | GI50 [9] | TGI [9] | GI50 [10] | TGI [10] |
| --- | --- | --- | --- | --- | --- | --- | --- | --- | --- | --- | --- | --- | --- | --- | --- | --- | --- | --- | --- | --- |
| COC(=O)c1c2c(c(C)[n+]([O-])c1C)C(=O)C(NCc1cccc(OC)c1)=CC2=O | 2.79 µM | 10.3 µM | 3.43 µM | 12 µM | 3.12 µM | 9.64 µM | 2.21 µM | 6.24 µM | 1.71 µM | 8 µM | 3.53 µM | 13.6 µM | 1.97 µM | 4.94 µM | 2.42 µM | 7 µM | 3.03 µM | 12.9 µM | 2.65 µM | 10.6 µM |
| CCCCCCCCCCCCOC1C(C(COC2OC(C(O)CN3CCCCC3)C3OC(C)(C)OC23)NC(=O)Nc2ccccc2)OC2OC(C)(C)OC21 (stereo not given) | 17.7 µM | 35.7 µM | 11.9 µM | 25.7 µM | 4.61 µM | 9.97 µM | 12.8 µM | 27.4 µM | 4.52 µM | 16.9 µM | 20.4 µM | 44.1 µM | 16 µM | 33.2 µM | 18.2 µM | 44.5 µM | 13.6 µM | 29.8 µM | 9.46 µM | 27.2 µM |
| O=C(O)c1ccc(S(=O)(=O)N=Nc2c(O)[nH]c3ccccc23)cc1 |  | > 100 µM |  | > 100 µM |  | > 100 µM |  | > 100 µM |  | > 100 µM |  | > 100 µM |  | > 100 µM |  | > 100 µM |  | > 100 µM |  | > 100 µM |
| O=C(O)c1ccc(-c2ccc(C(=O)O)cc2I)c(I)c1 | > 100 µM | > 100 µM | > 100 µM | > 100 µM | > 100 µM | > 100 µM | > 100 µM | > 100 µM | > 100 µM | > 100 µM | > 100 µM | > 100 µM | > 100 µM | > 100 µM | > 100 µM | > 100 µM | > 100 µM | > 100 µM | > 100 µM | > 100 µM |
| COc1ccc(NC(=O)c2sc3nc(C)c(C(O)c4ccc(OC)cc4)cc3c2N)cc1 (stereo not given) | 0.803 µM | > 50 µM | 1.65 µM | > 50 µM | 0.804 µM | 2.89 µM | 2.06 µM | > 50 µM | 0.17 µM | 9.97 µM | 1.89 µM | > 50 µM | 2.25 µM | > 50 µM | 1.84 µM | > 50 µM | 0.815 µM | 17.3 µM | 1.43 µM | > 50 µM |
| BrC(Br)(Br)c1cnc2ccccc2n1 | 1.52 µM | 4.41 µM | 2.21 µM | 7.14 µM | 1.67 µM | 3.6 µM | 1.39 µM | 3.22 µM | 1.36 µM | 4.21 µM | 3.38 µM | 13.6 µM | 3.71 µM | 14.1 µM | 3.33 µM | 16.1 µM | 2.94 µM | 13.2 µM | 1.3 µM | 3.17 µM |
| CCn1c(-c2nonc2N)nc2c(C#CC(C)(C)O)nc(O[C@@H](CN)c3ccccc3)cc21 | 3.7 µM | 12.3 µM | 0.112 µM | 4.64 µM | 0.0478 µM | 0.858 µM | 0.528 µM | 2.65 µM | 0.0621 µM | 1.06 µM | 0.073 µM | 4.57 µM | 0.208 µM | 2.82 µM | 0.236 µM | 3.24 µM | 0.122 µM | 4.06 µM | 0.0455 µM | 1.15 µM |
| O=C(NCCN1CCOCC1)Nc1ccc(-c2cc3c(Nc4ccc(Oc5cccc(C(F)(F)F)c5)c(Cl)c4)ncnc3s2)cc1 | 1.5 µM | 5.74 µM | 2.93 µM | 9.26 µM | 1.19 µM | 3.77 µM | 1.07 µM | 2.54 µM | 1.12 µM | 2.54 µM | 1.88 µM | 7.49 µM | 1.97 µM | 8.21 µM | 2.41 µM | 8.52 µM | 0.642 µM | 1.9 µM | 0.769 µM | 2.43 µM |
| O=C(Nc1cccc2cccnc12)c1ccc(N2C(=O)[C@@H]3[C@H](C2=O)[C@@H]2C=C[C@H]3C2)cc1 | 21 µM | > 100 µM | 29.9 µM | > 100 µM | 35.4 µM | > 100 µM | 33.2 µM | > 100 µM | 34.6 µM | > 100 µM | > 62.4 µM | > 100 µM | 28.7 µM | > 100 µM | 41.6 µM | > 100 µM | > 44.2 µM | > 100 µM | 16 µM | > 100 µM |
| CS(=O)c1ccc(-c2nc(-c3ccc(F)cc3)c(-c3ccncc3)[nH]2)cc1 (stereo not given) | 21.6 µM | > 81.9 µM | 31.7 µM | > 100 µM | 33.6 µM | > 89.7 µM | 48.4 µM | > 100 µM | 33.5 µM | > 100 µM | 18.8 µM | > 82 µM | 41.9 µM | > 100 µM | > 77.3 µM | > 100 µM | > 44.6 µM | > 100 µM | 38 µM | > 100 µM |
| CCCCN(CCCC)CC(C)(C)C(O)c1ccc(OC)c2ccccc12 (stereo not given) | 3.06 µM | 16 µM | 10.2 µM | 52.3 µM | 3.69 µM | 12 µM | 6.76 µM | 21.9 µM | 3.52 µM | 16.5 µM | 5.29 µM | 28.7 µM | 4.54 µM | 20.6 µM | 10.6 µM | 28.6 µM | 6.31 µM | 30.3 µM | 3.47 µM | 13.4 µM |
| COc1cccc(Cn2cc3c(c2)-c2oncc2CC3)c1 | 0.354 µM | > 84.8 µM | 0.314 µM | 1.24 µM | 0.442 µM | 7.98 µM | 0.636 µM | 96.8 µM | 0.338 µM | 4.1 µM | 0.361 µM | 6.03 µM | 0.597 µM | > 100 µM | 0.543 µM | > 100 µM | 0.211 µM | 0.895 µM | 0.386 µM | 35.8 µM |
| CC(=O)NCCCCCCNC(C)=O |  | > 10000 µM |  | > 10000 µM |  | > 8610 µM |  | > 5620 µM |  | > 7500 µM |  | > 10000 µM |  | > 10000 µM |  | > 10000 µM |  | 8830 µM |  | > 10000 µM |
| O=C(c1ccco1)c1c(C(F)(F)F)nc2cc(C(F)(F)F)ccc2[n+]1[O-] | 19.7 µM | 58.8 µM | 45.1 µM | > 100 µM | > 100 µM | > 100 µM | 18.9 µM | 40.9 µM | 56 µM | > 100 µM | 20.3 µM | 64.6 µM | 43.7 µM | > 100 µM | 40.7 µM | > 100 µM | 16.6 µM | 42.7 µM | 34.7 µM | > 100 µM |
| C=C1C(=O)O[C@H]2[C@H]1[C@H](OC(=O)/C(C)=C\C)C[C@]1(CO1)[C@@H]1[C@H](OC(C)=O)C=C(C)[C@]21O |  | 36.8 µM |  | 29 µM |  | 35.5 µM |  | 39.5 µM |  | > 89.8 µM |  | > 100 µM |  | 30.2 µM |  | > 100 µM |  | > 100 µM |  | 52 µM |
